Values of other authors in patent publication US20220265833A1, “ASPARTIC PROTEASE-TRIGGERED ANTIFUNGAL HYDROGELS” (priority 2017, published 2022).
Square brackets hold non-standard residues; d marks the D form. Ends that are not written are not given here. Phe(4-NO2) = N[C@@H](Cc1ccc([N+](=O)[O-])cc1)C(=O)O

Test system: Saps

| Substance | rank of peptide-Sap catalytic efficiency |
| --- | --- |
| LAF(p-NO2)FGAPK (LA[Phe(4-NO2)]FGAPK) [LFFK.AG] | In order of decreasing catalytic efficiencies, these peptides were: LFFK.AG, LFFK.A2, and LFFK |
| LAF(p-NO2)FLAPK (LA[Phe(4-NO2)]FLAPK) [LFFK.A2] | In order of decreasing catalytic efficiencies, these peptides were: LFFK.AG, LFFK.A2, and LFFK |
| LRF(p-NO2)↓FLAPK (LR[Phe(4-NO2)]FLAPK) [LFFK] | In order of decreasing catalytic efficiencies, these peptides were: LFFK.AG, LFFK.A2, and LFFK |
